Each structure is given as a SMILES string.

For one series, the system named is blood proteins. The note with it: stated as typical; cited from earlier work.
For series [1] the following is noted: metabolites are not fluorescent; cited from earlier work.
Series [2] is described as follows: disappearance of ICG from blood after high dose intravenous injection (calibration sequence). It counts as in vivo, New Zealand White rabbits. Conditions: rabbit, 1 mg ICG intravenously, metabolized by the liver. The text has this:
Experiments have been performed in New Zealand White rabbits (2.8-3.5 Kg) anesthetized with halothane and artificially ventilated with an oxygen-enriched gas mixture (FiO2˜0.4) to achieve a SaO2 above 99% and an end-tidal CO2 between 28 and 32 mm Hg (FIG. 4). The left femoral artery was cannulated for measurement of the arterial blood pressure throughout the procedure. A small catheter was positioned in the left brachial vein to inject the indicator, ICG. Body temperature was maintained with a heat lamp.
Calibration of the transcutaneous fluorescence intensity measured at the level of the animals' ear as a function of ICG concentration in blood was performed as follows. […]
As the liver metabolizes ICG, the blood ICG concentration decreases back to 0 in about 20 minutes. […] The fluorescence intensity of the blood in the cuvette was converted to a measurement of concentration using the known standard curve of fluorescence intensity versus ICG concentration established for the cuvette. ICG fluorescence was measured at the level of the ear at the exact time of the blood sample withdrawal. […]
For the range of concentrations used in these studies, ICG concentration and transcutaneous fluorescence were linearly related. The calibration line passes through the origin of the axes since there is no measured fluorescence when the ICG blood concentration is 0.

As to `CC1(C)C(/C=C/C=C/C=C/C=C2\N(CCCCS(=O)(=O)O)c3ccc4ccccc4c3C2(C)C)=[N+](CCCCS(=O)(=O)[O-])c2ccc3ccccc3c21` [ICG, indocyanine green], in the series on blood proteins, the “fraction of ICG injected in the bloodstream that binds to blood proteins” value is listed as “more than 95%”. Besides, the “stability in aqueous solution” value in series [1] was “breaks down quickly”. In addition, the “time for blood ICG concentration to decrease back to 0” value in series [2] was “about 20 minutes”.

(Values after patent US8249697B2, “Cardiac output monitor with compensation for tissue perfusion” (Alfred E. Mann Institute for Biomedical Engineering at the …, priority 2008, dated 2012).)
